The values that follow come from publication PMC9363158 (HIV medicine, 2021).

Values joined by “and” are separate entries in the source; they are usually repeats but may differ in a detail not shown here. Equal values may be shown once. Read-outs that look alike come from different tables or passages of the source.

Data set [1] concerns CYP2B6. Kind of data set: CYP gene expression in human hepatocytes. It is filed as in vitro ADME.
Data set [2] concerns CYP3A4. Conditions: total dolutegravir up to and including 40 μM, 48 h; cited from earlier work.
The conditions of data set [3]: in vivo; cited from earlier work.
Data set [4] has as its system CYP2B6. Conditions: total dolutegravir up to and including 40 μM, 48 h; cited from earlier work.
The subject of the next data set is CYP1A2. Kind of data set: CYP gene expression in human hepatocytes. It counts as in vitro ADME.
Data set [5] is described as follows: dolutegravir protein binding in Williams' Medium E by rapid equilibrium dialysis. It is filed as in vitro ADME. (In equilibrium dialysis only unbound substance equilibrates across the membrane.)
Data set [6] has as its system CYP3A4. Nature of the data set: in vitro. The following applies: human, fold induction of CYP3A4 expression.
The test system of data set [7] is CYP3A4.
Another data set concerns the target rhCYP3A5 (Homo sapiens, UniProt P20815). Kind of data set: levonorgestrel clearance by recombinant human CYP. It is filed as in vitro ADME.
A further data set concerns hepatic CYPs. Kind of data set: total apparent and systemic plasma clearance scaled from rhCYP data. It is filed as in vitro ADME, human.
The nature of data set [8]: levonorgestrel CLint.app. by cryopreserved primary human hepatocytes. It is filed as in vitro ADME. The following applies: cryopreserved primary human hepatocytes (plated).
The conditions of data set [9]: administered orally; cited from earlier work.
In the next data set the target is T1, rhCYP1A2 (Homo sapiens, UniProt P05177).
T1 sequence (P05177 1-516): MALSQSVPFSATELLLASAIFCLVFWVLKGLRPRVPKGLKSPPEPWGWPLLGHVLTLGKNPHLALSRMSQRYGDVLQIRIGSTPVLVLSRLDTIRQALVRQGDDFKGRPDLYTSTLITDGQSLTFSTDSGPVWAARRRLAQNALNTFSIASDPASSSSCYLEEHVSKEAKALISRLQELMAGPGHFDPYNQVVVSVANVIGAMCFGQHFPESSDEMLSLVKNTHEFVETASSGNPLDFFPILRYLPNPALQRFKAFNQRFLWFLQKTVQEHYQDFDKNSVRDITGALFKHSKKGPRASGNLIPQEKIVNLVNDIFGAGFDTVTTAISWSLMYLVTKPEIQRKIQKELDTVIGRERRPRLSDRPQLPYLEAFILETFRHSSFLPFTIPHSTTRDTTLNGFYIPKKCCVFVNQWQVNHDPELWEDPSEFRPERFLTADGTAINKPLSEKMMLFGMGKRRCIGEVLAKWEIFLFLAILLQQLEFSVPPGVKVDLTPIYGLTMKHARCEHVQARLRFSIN
Kind of data set: levonorgestrel clearance by recombinant human CYP. It is filed as in vitro ADME.

A further data set deals with rhCYP2C19 (Homo sapiens, UniProt P33261). Kind of data set: levonorgestrel clearance by recombinant human CYP. It counts as in vitro ADME.
rhCYP2C19, sequence (P33261 whole entry): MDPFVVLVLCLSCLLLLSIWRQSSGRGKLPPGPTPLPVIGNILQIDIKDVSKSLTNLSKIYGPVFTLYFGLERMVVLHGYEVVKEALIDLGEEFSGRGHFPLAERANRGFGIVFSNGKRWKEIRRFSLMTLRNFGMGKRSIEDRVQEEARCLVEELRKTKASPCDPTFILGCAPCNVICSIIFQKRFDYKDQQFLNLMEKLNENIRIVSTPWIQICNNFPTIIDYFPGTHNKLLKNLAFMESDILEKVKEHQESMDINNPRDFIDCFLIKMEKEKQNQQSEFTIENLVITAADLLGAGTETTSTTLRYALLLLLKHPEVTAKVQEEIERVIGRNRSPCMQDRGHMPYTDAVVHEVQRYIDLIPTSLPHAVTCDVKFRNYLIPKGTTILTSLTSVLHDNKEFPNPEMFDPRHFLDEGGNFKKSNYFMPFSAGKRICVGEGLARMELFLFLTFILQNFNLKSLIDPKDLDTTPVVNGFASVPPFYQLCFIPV
A further data set addresses rhCYP2C9 (Homo sapiens, UniProt P11712). Kind of data set: levonorgestrel clearance by recombinant human CYP. It is filed as in vitro ADME.
The conditions of data set [10]: cited from earlier work.
The target in another data set is T2, rhCYP2B6 (Homo sapiens, UniProt P20813).
T2 sequence (P20813 1-491): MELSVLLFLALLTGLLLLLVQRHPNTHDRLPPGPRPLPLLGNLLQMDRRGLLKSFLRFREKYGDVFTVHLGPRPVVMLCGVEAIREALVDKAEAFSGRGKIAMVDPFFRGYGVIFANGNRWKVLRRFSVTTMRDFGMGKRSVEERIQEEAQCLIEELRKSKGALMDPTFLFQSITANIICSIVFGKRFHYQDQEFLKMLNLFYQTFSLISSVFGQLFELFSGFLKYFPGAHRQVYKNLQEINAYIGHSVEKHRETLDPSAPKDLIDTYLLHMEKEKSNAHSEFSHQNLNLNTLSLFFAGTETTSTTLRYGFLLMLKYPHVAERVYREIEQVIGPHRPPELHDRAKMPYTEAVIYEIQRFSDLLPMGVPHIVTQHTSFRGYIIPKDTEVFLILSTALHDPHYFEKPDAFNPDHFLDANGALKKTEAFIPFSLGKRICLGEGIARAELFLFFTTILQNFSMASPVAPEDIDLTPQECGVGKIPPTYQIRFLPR
Kind of data set: levonorgestrel clearance by recombinant human CYP. It counts as in vitro ADME.

For data set [11] the following is noted: Jadelle subdermal implants, cited from earlier work.
The target in a further data set is rhCYP3A4 (Homo sapiens, UniProt P08684). Nature of the data set: levonorgestrel clearance by recombinant human CYP. It is filed as in vitro ADME.
rhCYP3A4, sequence (P08684 whole entry): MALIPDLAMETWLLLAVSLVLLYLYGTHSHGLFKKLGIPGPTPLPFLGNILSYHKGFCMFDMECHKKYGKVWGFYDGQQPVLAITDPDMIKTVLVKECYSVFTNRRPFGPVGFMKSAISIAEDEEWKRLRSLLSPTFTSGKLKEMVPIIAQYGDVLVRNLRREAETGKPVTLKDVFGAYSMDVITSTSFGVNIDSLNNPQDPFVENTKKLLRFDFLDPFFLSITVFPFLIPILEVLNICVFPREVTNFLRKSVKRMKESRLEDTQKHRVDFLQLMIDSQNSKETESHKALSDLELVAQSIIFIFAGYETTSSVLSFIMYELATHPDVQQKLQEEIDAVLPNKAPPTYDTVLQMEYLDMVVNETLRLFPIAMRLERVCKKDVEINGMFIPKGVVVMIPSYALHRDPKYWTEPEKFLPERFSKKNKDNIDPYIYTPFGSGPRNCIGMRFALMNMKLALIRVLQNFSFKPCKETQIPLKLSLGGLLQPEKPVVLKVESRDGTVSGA
Data set [12] relates to CYP3A4. The following applies: read-out: mean observed Km of progesterone metabolism by CYP3A4; liver microsome studies; cited from earlier work.
The test system of another data set is CYP2C19. Conditions: read-out: mean observed Km of progesterone metabolism by CYP2C19; liver microsome studies; cited from earlier work.
The test system of a further data set is CYP2C9. Conditions: read-out: mean observed Km of progesterone metabolism by CYP2C9; liver microsome studies; cited from earlier work.
For data set [13] the following is noted: clinical observation with rifampin; cited from earlier work.
[14] abbreviates: human, cryopreserved primary human hepatocytes.
Setting [15] is: levonorgestrel 5 μM, 60 min, vs ketoconazole inhibitor control.
Where [16] appears, read: scaled from rhCYP data to adult female liver (Eq. 2).

rhCYP3A5, sequence (P20815 whole entry): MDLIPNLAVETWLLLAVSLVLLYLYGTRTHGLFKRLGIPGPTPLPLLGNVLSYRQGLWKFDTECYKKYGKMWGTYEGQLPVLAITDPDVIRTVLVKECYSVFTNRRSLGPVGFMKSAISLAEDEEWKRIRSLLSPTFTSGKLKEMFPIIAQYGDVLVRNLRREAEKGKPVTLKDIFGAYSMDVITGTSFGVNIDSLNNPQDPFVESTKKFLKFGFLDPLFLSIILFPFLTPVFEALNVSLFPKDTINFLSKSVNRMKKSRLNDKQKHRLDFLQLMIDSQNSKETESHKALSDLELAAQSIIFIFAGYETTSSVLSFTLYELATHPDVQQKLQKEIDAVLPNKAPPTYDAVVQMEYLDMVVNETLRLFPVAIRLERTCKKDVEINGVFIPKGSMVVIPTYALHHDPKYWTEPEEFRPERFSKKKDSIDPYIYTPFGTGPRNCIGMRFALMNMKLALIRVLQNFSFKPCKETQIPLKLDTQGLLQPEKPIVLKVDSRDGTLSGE
rhCYP2C9, sequence (P11712 whole entry): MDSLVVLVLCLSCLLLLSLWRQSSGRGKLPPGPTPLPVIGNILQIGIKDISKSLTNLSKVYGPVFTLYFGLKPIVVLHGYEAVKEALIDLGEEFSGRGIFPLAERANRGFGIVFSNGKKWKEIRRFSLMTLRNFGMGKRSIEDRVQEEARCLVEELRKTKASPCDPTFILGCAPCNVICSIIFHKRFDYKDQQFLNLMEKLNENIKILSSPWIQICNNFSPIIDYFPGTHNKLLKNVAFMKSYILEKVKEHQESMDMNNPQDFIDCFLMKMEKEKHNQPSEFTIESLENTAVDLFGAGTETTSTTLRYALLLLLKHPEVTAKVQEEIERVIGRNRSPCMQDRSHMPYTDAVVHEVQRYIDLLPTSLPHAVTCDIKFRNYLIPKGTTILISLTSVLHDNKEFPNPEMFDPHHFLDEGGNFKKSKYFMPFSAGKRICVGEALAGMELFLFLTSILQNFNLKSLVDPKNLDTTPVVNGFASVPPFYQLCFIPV

Take `C[C@@H]1CCO[C@H]2Cn3cc(C(=O)NCc4ccc(F)cc4F)c(=O)c(O)c3C(=O)N12` [dolutegravir]: the “effect on expression of CYP2B6” value with CYP2B6 [1] (dolutegravir at concentrations spanning unbound range reported in human plasma (24.6–57.2 nM), 72 h) was “no effect”; in the data set on CYP2B6 [4], “expression of neither CYP2B6 nor CYP3A4 was affected”. Further, the fold induction at 72 h, 3.33 μM with CYP2B6 [1] (setting [14]) is 2.2 ± 0.3. In addition, in the data set on CYP2B6 [1] (setting [14]), the fold induction at 72 h, 10 μM amounted to 2.3 ± 0.7. Further, the “effect on expression of CYP3A4” value is recorded as “expression of neither CYP2B6 nor CYP3A4 was affected” with CYP3A4 [2] and “no effect” with CYP3A4 [7]. The “unbound concentration range in human plasma” value in [3] was 24.6 to 57.2 nM. The “induction of CYP1A2 expression (≥ two-fold above vehicle control)” value in the data set with CYP1A2 (dolutegravir 0.00033–10 μM (unbound 0.142–4310 nM), 72 h) is “did not induce the expression of CYP1A2”. The compound further had a fraction unbound at 4 h, 5 μM in data set [5] of 0.43 ± 0.09. Further, the fold induction in the data set with CYP3A4 [6] was 2.3 ± 0.4.
Turning to `C#C[C@]1(O)CC[C@H]2[C@@H]3CCC4=CC(=O)CC[C@@H]4[C@H]3CC[C@@]21CC` [levonorgestrel], at rhCYP3A5 (setting [15]), the “levonorgestrel CLint.app. rhCYP3A5” value was 0.178 ± 0.027 µL/min/pmol. The “TCLH, CYP3A5” value at rhCYP3A5 (setting [16]) was 9.4 ± 1.4 L/h. The “total systemic plasma clearance” value in the data set on hepatic CYPs (from CLapp, fu 3% (Eq. 4)) is listed as 2.38 ± 0.46 L/h. The “total apparent clearance (CLapp) by the hepatic CYPs measured” value in the data set on hepatic CYPs (sum of TCLH of six CYPs (Eq. 3)) amounted to 80.97 ± 15.53 L/h. In data set [8], this compound returned an intrinsic clearance (hepatocyte CLint) at 1 nM of 22.4 ± 5 µL/min/1e6 cells. Besides, the oral bioavailability result in data set [9] is recorded as “high bioavailability”. The “levonorgestrel CLint.app. rhCYP1A2” value at rhCYP1A2 (levonorgestrel 5 μM, 60 min, vs α-naphthoflavone inhibitor control) was 0.028 ± 0.012 µL/min/pmol. Further, at rhCYP1A2 (setting [16]), the “TCLH, CYP1A2” value stood at 3.4 ± 1.5 L/h. The “levonorgestrel CLint.app. rhCYP2C19” value at rhCYP2C19 (levonorgestrel 5 μM, 60 min, vs (+)-N-3-benzylnirvanol inhibitor control) is 0.046 ± 0.005 µL/min/pmol. Moreover, the “TCLH, CYP2C19” value at rhCYP2C19 (setting [16]) stood at 1.6 ± 0.2 L/h. Moreover, at rhCYP2C9 (levonorgestrel 5 μM, 60 min, vs sulfaphenazole inhibitor control), the “levonorgestrel CLint.app. rhCYP2C9” value is 0.062 ± 0.010 µL/min/pmol. For the same compound, the “TCLH, CYP2C9” value at rhCYP2C9 (setting [16]) stood at 11.6 ± 1.9 L/h. For the same compound, in [10], the “bound to human plasma” value was 97%. Also, the “fraction unbound in plasma (fu)” value in [10] (set from 97% binding) is reported as 3%. Further, at rhCYP2B6 (levonorgestrel 5 μM, 60 min, vs sertraline inhibitor control), the “levonorgestrel CLint.app. rhCYP2B6” value was 0.052 ± 0.004 µL/min/pmol. Also, on rhCYP2B6 (setting [16]), the “TCLH, CYP2B6” value is 2.6 ± 0.2 L/h. Further, the “plasma concentration of levonorgestrel” value in data set [11] (1 month after insertion) was 1.39 nM and 435 pg/mL; in [11] (3 years after insertion), 0.90 nM and 280 pg/mL. In addition, at rhCYP3A4 (setting [15]), the “levonorgestrel CLint.app. mediated by rhCYP3A4” value is 0.182 ± 0.036 µL/min/pmol. For the same compound, on rhCYP3A4 (setting [16]), the “total intrinsic clearance by a single CYP in the liver as a whole (TCLH), CYP3A4” value came to 52.5 ± 10.4 L/h.
Turning to `CCC1(c2ccccc2)C(=O)NC(=O)NC1=O` [phenobarbital], the fold induction at 72 h, 1 mM with CYP2B6 [1] (setting [14]) worked out at 2.6 ± 1.1; in the data set on CYP1A2 (setting [14]), 2.7 ± 0.6. The “fold increase in CYP3A4 expression” value in the data set on CYP3A4 [7] (human, hepatocytes) was determined as 4.8 ± 0.7 fold.
Regarding `CC(=O)[C@H]1CC[C@H]2[C@@H]3CCC4=CC(=O)CC[C@]4(C)[C@H]3CC[C@]12C` [progesterone], the Km was 80 µM in the data set on CYP3A4 [12], 37 µM in the data set with CYP2C19 and 46 µM in the data set on CYP2C9.
`CO[C@H]1/C=C/O[C@@]2(C)Oc3c(C)c(O)c4c(O)c(c(/C=N/N5CCN(C)CC5)c(O)c4c3C2=O)NC(=O)/C(C)=C\C=C\[C@H](C)[C@H](O)[C@@H](C)[C@@H](O)[C@@H](C)[C@H](OC(C)=O)[C@@H]1C` [rifampin]: in data set [13], the “decrease of levonorgestrel exposure” value is on record as 58%. For the same compound, in the data set with CYP2B6 [1] (setting [14]), the fold induction at 72 h, 10 μM amounted to 2 ± 0.5.

As a reminder, the fold induction is the signal under treatment as a multiple of the control signal. As a reminder, the fraction unbound is the share of the substance not bound to proteins or other matrix. A low value points to little free substance. The hepatocyte CLint is a measure of how fast metabolising enzymes remove a compound, apart from limits set by blood flow. One may read the Km as the concentration of substrate that gives half-maximal velocity.
